Results reported in patent US20210115406A1, “HOST-BIOME INTERACTIONS” (EMULATE, INC., priority 2018, published 2021).

What was measured:
Airway cells = experiment: Permeability of airway cells to Imipenem on Airway chip; type: cell-based; conditions: at lower concentrations
Description: More specifically, in one embodiment of an Airway on-chip, duplicate chips are infected with PA 5919 WT or PA 5890 Mutant as described herein. Then, Imipenem is added to apical and basolateral fluids (cell media) for treatment with Imipenem at 50, 100 and 500 μg/ml for 24 hours with at least one chip without Imipenem. At 24 h post treatment, wash cells 3× to remove the test drug, i.e. antibiotic Imipenem. Cells lysed with 1% Triton for 10 minutes on chip, then the lyste is collected from the chip's channels. Lysates are serially diluted for CFU quantification. N=2
Assay readouts: Viability of extracellular bacteria (apical sampling). Viability of intracellular bacteria (cell lysis and sampling). Two-way ANOVA with Dunnett's post-test **<0.05, **<0.001 (compared to untreated).

[1] = test system: Lamina Propria Immune Cells; experiment: Steroidal treatment of lamina propria immune cells on Intestine-Chip; type: cell-based, human; conditions: 10 μM (10X clinically relevant dosage); before and after challenge with PAM2CSK4; ulcerative colitis patients
Airway On-Chip cells = experiment: TUNEL apoptosis staining on Airway On-Chip; type: cell-based; conditions: 3 μM for 3 h at 37° C., positive control
Description: One embodiment of an Airway On-Chip is infected as described above for 2 hours and then treated 50 μg/ml tetracycline for 24 h (top and bottom channels under flow) for 24 h in order to limit bacterial replication (to avoid over-replication and cell lifting). Using this methodology, we performed longer infections on an airway chip and avoided cell death at 24 h. At 24 h, chips are fixed with 4% paraformaldehyde for 15 minutes and subsequently permeabilized with 0.25% triton in PBS. Apoptosis staining is performed following the Click-iT™ Plus TUNEL Assay for In Situ Apoptosis Detection, Alexa Fluor 647 assay: Click-iT™ Plus TUNEL Assay, Thermo Fisher Scientific Inc., 6 November 2017.
The TUNEL assay is based on the incorporation of modified dUTPs by the enzyme terminal deoxynucleotidyl transferase (TdT) at the 3′-OH ends of fragmented DNA, a hallmark as well as the ultimate determinate of apoptosis. Click-iT™ Plus TUNEL assay with the Alexa Fluor™ 647 dye is utilized to detect the fragment DNA (purple), nuclei are labelled with DAPI.
Staurosporin, a prototypical ATP-competitive kinase inhibitor, is used as a positive control in this assay. […] As an additional positive control, chips are treated with 1 unit of DNAse I for 30 minutes at room temperature to induce TUNEL positive DNA strand breaks.

Caco-2 Intestine-Chip = experiment: Bacterial colonization, attachment and titration on Intestine-Chip; type: cell-based, human; conditions: SEM images of the Intestine-Chip
Source text: Top Channel: Caco-2. Day 1: Connect to flow. Day 3: Inoculation and Readouts: Imaging; Permeability; Bacterium Titer; etc. Day 8: Inflammatory Challenge. Readouts: Imaging; Permeability; Cytokines; Bacterium Titer; etc. Day 8 +4 hrs: Readouts: Imaging; Permeability; Cytokines; Bacterium Titer; etc. Day 8 +14 hrs: Readouts: Permeability; Cytokines; Effluent Titer; etc. Day 8 +14 hrs: Collect Endpoints: RNA; Immunofluorescence; Adherent Titer; etc.
Barrier function is an indicator of epithelial cell health in the intestine. […] Each bacteria strain was added (inoculated) on chip at a concentration of 1×10^6 mL^−1.
FIG. 44A Bacterial Titration (counts mL^−1) at Day 3 and Day 4 compared to adherent counts at Day 4.
Bacterial Titration. Viable, aerotolerant bifidobacterial strains colonized the Caco-2 Intestine-Chip and could be detected in plate Titers.

## C[C@@H](O)[C@H]1C(=O)N2C(C(=O)O)=C(SCCN=CN)C[C@H]12 [Imipenem]
Airway cells
  permeability of airway cells to the drug: impermeable

## C[C@]12C=CC(=O)C=C1CC[C@@H]1[C@@H]2C(=O)C[C@@]2(C)[C@H]1CC[C@]2(O)C(=O)CO [Prednisone]
[1]
  inflammatory responses: suppresses inflammatory responses

## CN[C@@H]1C[C@H]2O[C@@](C)([C@@H]1OC)n1c3ccccc3c3c4c(c5c6ccccc6n2c5c31)C(=O)NC4 [staurosporin, Staurosporin]
Airway On-Chip cells
  apoptotic cell numbers (TUNEL): increased apoptotic cell numbers

## Lactobacillus rhamnosus strain GG [LGG]
Caco-2 Intestine-Chip
  attachment and biofilm formation: evidence of LGG attachment and biofilm formation
